According to patent US20190022039A1, “COMPOUND HAVING ENHANCING ACTIVITY FOR GLUCAGON-LIKE PEPTIDE-1 RECEPTOR ACTIONS” (AJINOMOTO CO., INC., priority 2016, published 2019):

Legend:
[1] = tested on: KKAy mice; assay: Blood glucose increase suppressive effect in diabetes model mouse after whey protein and glucose load; format: in vivo; conditions: male KKAy mice, 3 mg/kg intraperitoneal
Method: 23-week-old male KKAy mice fasted overnight were randomly divided into 2 groups, and whey protein was orally administered to each mouse at 3 g/kg to induce endogenous GLP-1 secretion. At 30 min after whey protein administration, the compound of the present invention (compound 50) or administration medium (vehicle) was intraperitoneally administered to each mouse at 3 mg/kg, glucose was orally administered immediately thereafter at 2 g/kg, blood samples were collected from the tail vein over time, and the blood glucose level was measured.

[2] = tested on: isolated rat islets of Langerhans; assay: Glucose-stimulated insulin secretion in isolated rat islets of Langerhans; format: cell-based
Method: The islets of Langerhans were isolated from the pancreas of male Wistar rats at around 10 weeks of age, according to a conventional method and using collagenase and Ficoll-Conray solution (Cryobiology, 2006, 52:90-8), and used for the activity evaluation of the compound.
The isolated islets were precultured in glucose-free Krebs Ringer Bicarbonate-Hepes buffer (KRBH: 129 mM NaCl, 4.7 mM KCl, 5.0 mM NaHCO3, 1.2 mM MgSO4, […], 2.5 mM CaCl2, 10 mM HEPES, pH 7.4) under the conditions of 37° C., 5% CO2 for 30 min and seeded in each well of a 24 well plate by 5 islets. […] The culture supernatant was recovered from each well after culturing for 1 hr, and the concentration of insulin secreted in the supernatant was measured using a commercially available measurement kit (manufactured by Morinaga Institute of Biological Science, Inc.). The insulin secretion amounts under respective stimulation conditions were calculated as secretion amounts relative to the secretion amount at 8.3 mM glucose.

[3] = target: T1, human GLP-1R (Homo sapiens, UniProt P43220); assay: GLP-1 receptor in vitro calcium assay (intracellular free calcium concentration change induced via GLP-1 receptor); format: cell-based; conditions: for EC50: PRG48 cells transfected with human GLP-1R, compound added with 250 pM GLP-1, Ca2+ response ΔF/F, read-out: Ca EC50 value; for GLP-1 receptor action enhancing activity (vs BETP): intensity compared to BETP, activity of BETP as 1
T1 construct: expressed in transfected cells; host or cells: PEAK RAPID-derived Gα15-trans48 LD stably expressing cells (PRG48), transiently transfected with Lipofectamine 2000
In short: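 PRG48 cells transiently transfected with human GLP-1R and loaded with calcium dye in HEPES buffer containing probenecid. Compound added together with 250 pM GLP-1; fluorescence (Ex480/Em540) recorded before and after addition. ΔF/F computed and EC50 fitted from it.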

[4] = tested on: KKAy mice; assay: Food intake-suppressive effect in diabetes model mouse; format: in vivo; conditions: male KKAy mice fasted overnight, 3 mg/kg oral in simulated intestinal fluid, 4 hr after administration, vs simulated intestinal fluid group (FIG. 3)
Method: 11-week-old male KKAy mice were randomly divided into 2 groups. After fasting overnight, simulated intestinal fluid (containing 10 mM taurocholic acid, 2 mM lecithin, 55 mM maleic acid, 81.6 mM sodium hydroxide, 125 mM sodium chloride), or the compound of the present invention (compound 96) dissolved in the simulated intestinal fluid was orally administered (3 mg/kg), a commercially available feed (CRF-1, manufactured by Oriental Yeast Co., ltd.) was given and changes in the food intake was monitored.

T1 sequence (P43220 24-463): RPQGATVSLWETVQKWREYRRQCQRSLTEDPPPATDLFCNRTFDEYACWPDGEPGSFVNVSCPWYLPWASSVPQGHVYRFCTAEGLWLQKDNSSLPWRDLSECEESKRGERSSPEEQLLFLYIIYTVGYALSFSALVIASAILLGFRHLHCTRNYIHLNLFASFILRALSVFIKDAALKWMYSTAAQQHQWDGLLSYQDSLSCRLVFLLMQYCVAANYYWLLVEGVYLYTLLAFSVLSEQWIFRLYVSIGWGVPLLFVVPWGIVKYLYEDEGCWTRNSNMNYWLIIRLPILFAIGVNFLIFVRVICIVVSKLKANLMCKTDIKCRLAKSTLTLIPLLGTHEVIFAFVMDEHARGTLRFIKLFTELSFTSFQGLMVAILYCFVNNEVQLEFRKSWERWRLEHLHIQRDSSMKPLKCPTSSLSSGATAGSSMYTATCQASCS

## CCCCC(CC)CNC(=O)[C@H](CC1CCCCC1)NC(=O)Nc1ccc(NS(=O)(=O)c2ccc(C(C)(C)C)cc2)cc1 (stereo partly drawn) [Compound 50]
[1]; 30 min after whey protein 3 g/kg, glucose 2 g/kg oral, peak 30 min after glucose (FIG. 2A)
  blood glucose at the time of peak: suppression of blood glucose increase at the time of peak
[1]; 180 min after glucose administration, p<0.05 vs vehicle (FIG. 2B)
  blood glucose AUC value: 734.3 ± 65.9 mg·h/dL
[2]; 30 μM compound 50 alone in buffer containing 8.3 mM glucose, 1 hr
  insulin secretion: did not affect insulin secretion
[2]; simultaneous addition of 30 μM compound 50 and 1 nM exendin-4, 8.3 mM glucose, 1 hr (FIG. 1)
  increase in insulin secretion amount as compared to 8.3 mM glucose alone: about 2 fold
[3]
  EC50: 6.8 nM
  GLP-1 receptor action enhancing activity (vs BETP): 3720

## CCCCCCNC(=O)[C@@H](Cc1cccnc1)NC(=O)Nc1ccc(NS(=O)(=O)c2ccc(C(C)(C)C)cc2)cc1 [Compound 96]
[4]
  cumulative food consumption: significant suppression
[3]
  EC50: 600 nM
  GLP-1 receptor action enhancing activity (vs BETP): 42
